In the supplement of paper PMC10307832:

How the values were obtained:
Assay in all cases: relative viability (nuclei count vs DMSO), 5 days (fraction); higher = more cells survive
NCI-H1792 = test system: NCI-H1792
Method in brief: (§1)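 Nuclei were stained with Hoechst during a one-step fixation (final 0.05% Triton X-100, 1% formaldehyde, 1 ug/ml Hoechst) carried out 5 days after dosing, then counted on 4× images. The cells, lung cancer lines in 1536-well plates, had been dosed by pin tool the day after seeding with one drug alone or a fixed anchor-drug dose plus five library-drug doses (not always all listed) in √10 steps. Relative viability is the nuclei count in treated wells divided by that in vehicle wells, and each value is the median of duplicate plates.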

201T = test system: 201T
Method in brief: as §1

NCI-H727 = test system: NCI-H727
Method in brief: as §1

NCI-H1793 = test system: NCI-H1793
Method in brief: as §1

HCC-827 = test system: HCC-827
Method in brief: as §1

NCI-H2087 = test system: NCI-H2087
Method in brief: as §1

NCI-H1650 = test system: NCI-H1650
Method in brief: as §1

NCI-H2228 = test system: NCI-H2228
Method in brief: as §1

NCI-H1395 = test system: NCI-H1395
Method in brief: as §1

NCI-H3122 = test system: NCI-H3122
Method in brief: as §1

NCI-H322M = test system: NCI-H322M
Method in brief: as §1

## O=c1cc(-c2cccc3c2Sc2ccccc2S3)oc(N2CCOCC2)c1 + CS(=O)(=O)N1CCN(Cc2cc3nc(-c4cccc5[nH]ncc45)nc(N4CCOCC4)c3s2)CC1 [Pictilisib] (partner 1 µM)
NCI-H1792; first compound 0.253 µM
  relative viability: 0.257
NCI-H1792; first compound 0.8 µM
  relative viability: 0.223
NCI-H1792; first compound 2.53 µM
  relative viability: 0.277
NCI-H1792; first compound 8 µM
  relative viability: 0.238
201T; first compound 0.08 µM
  relative viability: 0.652
201T; first compound 0.253 µM
  relative viability: 0.718
201T; first compound 0.8 µM
  relative viability: 0.51
201T; first compound 2.53 µM
  relative viability: 0.616
201T; first compound 8 µM
  relative viability: 0.742
NCI-H727; first compound 0.253 µM
  relative viability: 0.442
NCI-H727; first compound 2.53 µM
  relative viability: 0.285
NCI-H727; first compound 8 µM
  relative viability: 0.528
NCI-H1793; first compound 0.08 µM
  relative viability: 0.185
NCI-H1793; first compound 0.253 µM
  relative viability: 0.301
NCI-H1793; first compound 0.8 µM
  relative viability: 0.303
NCI-H1793; first compound 2.53 µM
  relative viability: 0.303
NCI-H1793; first compound 8 µM
  relative viability: 0.334
HCC-827; first compound 0.08 µM
  relative viability: 0.945
HCC-827; first compound 0.253 µM
  relative viability: 1.13
HCC-827; first compound 0.8 µM
  relative viability: 1.12
HCC-827; first compound 2.53 µM
  relative viability: 0.743
HCC-827; first compound 8 µM
  relative viability: 1.1
NCI-H2087; first compound 0.08 µM
  relative viability: 0.954
NCI-H2087; first compound 0.253 µM
  relative viability: 1.15
NCI-H2087; first compound 0.8 µM
  relative viability: 0.931
NCI-H2087; first compound 2.53 µM
  relative viability: 0.87
NCI-H2087; first compound 8 µM
  relative viability: 0.973
NCI-H1650; first compound 0.08 µM
  relative viability: 0.509
NCI-H1650; first compound 0.253 µM
  relative viability: 0.53
NCI-H1650; first compound 0.8 µM
  relative viability: 0.507
NCI-H1650; first compound 2.53 µM
  relative viability: 0.522
NCI-H1650; first compound 8 µM
  relative viability: 0.582
NCI-H2228; first compound 0.08 µM
  relative viability: 0.434
NCI-H2228; first compound 0.253 µM
  relative viability: 0.424
NCI-H2228; first compound 0.8 µM
  relative viability: 0.296
NCI-H2228; first compound 2.53 µM
  relative viability: 0.484
NCI-H2228; first compound 8 µM
  relative viability: 0.378
NCI-H1395; first compound 0.08 µM
  relative viability: 0.634
NCI-H1395; first compound 0.253 µM
  relative viability: 0.602
NCI-H1395; first compound 0.8 µM
  relative viability: 0.534
NCI-H1395; first compound 2.53 µM
  relative viability: 0.579
NCI-H1395; first compound 8 µM
  relative viability: 1.05
NCI-H3122; first compound 0.08 µM
  relative viability: 0.481
NCI-H3122; first compound 0.253 µM
  relative viability: 0.755
NCI-H3122; first compound 0.8 µM
  relative viability: 0.452
NCI-H3122; first compound 2.53 µM
  relative viability: 0.595
NCI-H3122; first compound 8 µM
  relative viability: 0.568
NCI-H322M; first compound 0.08 µM
  relative viability: 0.512
NCI-H322M; first compound 0.253 µM
  relative viability: 0.553
NCI-H322M; first compound 0.8 µM
  relative viability: 0.419
NCI-H322M; first compound 2.53 µM
  relative viability: 0.585
NCI-H322M; first compound 8 µM
  relative viability: 0.471
